{
  "source": "patent US10894787B2",
  "about": "“Modulators of the GPR119 receptor and the treatment of disorders related thereto” (Arena Pharmaceuticals, Inc., priority 2010, dated 2021)",
  "key": {"[1]": {"target": "T1, GPR119 receptor (Homo sapiens, UniProt Q8TDV5)", "T1 construct": "expressed in transfected cells", "T1 sequence (Q8TDV5 2-335 limits assumed)": "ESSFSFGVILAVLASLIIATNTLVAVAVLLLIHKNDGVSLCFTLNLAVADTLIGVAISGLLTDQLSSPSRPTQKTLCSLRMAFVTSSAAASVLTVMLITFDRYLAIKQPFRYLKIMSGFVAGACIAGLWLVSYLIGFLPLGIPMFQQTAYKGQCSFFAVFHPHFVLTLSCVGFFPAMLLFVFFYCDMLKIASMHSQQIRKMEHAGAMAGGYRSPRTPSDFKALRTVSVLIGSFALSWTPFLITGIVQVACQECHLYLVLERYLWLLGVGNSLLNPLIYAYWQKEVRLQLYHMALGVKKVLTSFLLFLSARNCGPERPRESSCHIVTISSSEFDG", "assay": "HTRF assay for direct cAMP measurement in CHO-K1 cells stably expressing the GPR119 receptor", "type": "cell-based", "conditions": "for pEC50: CHO-K1 cells stably expressing GPR119; for Pharmacological activity of metabolites (HTRF assay): metabolites of Compound 1", "experimental": "The GPR119 agonist, Compound 1, was evaluated in an HTRF® cAMP detection assay according to the manufacturer's instructions (Cisbio, cAMP Dynamic 2 Assay Kit; #62AM4PEJ) using CHO-K1 cells stably expressing the GPR119 receptor. Briefly, CHO-K1 cells were transduced with a lentiviral vector encoding the nucleotide sequence of GPR119 (NCBI mRNA and protein reference sequences: NM_178471.2 & NP_848566, (GPR119 has also been referred to as Glucose-Dependent Insulinotropic Receptor (GDIR)). The N-terminus of the GPR119 nucleotide sequence was modified to replace the first, methionine-coding codon with a nucleotide sequence coding for a standard, nine amino acid, hemagglutinin tag. Following transduction, cells expressing the GPR119 receptor were isolated and a single clone was isolated following standard dilution-cloning procedures. On the day of the assay, cultured CHO-GPR119 cells were harvested, suspended in assay buffer and plated into 384-well assay plates (PerkinElmer Proxiplate #6008280) at a density of 2,000 cells per well. A cAMP standard curve was included on each plate. Test compounds were solubilized in DMSO, serially diluted in DMSO and then diluted in assay buffer before adding to the cells. Test compounds were evaluated in triplicate, using 10-point, 5-fold serial dilutions starting at 10 μM. The final DMSO concentration in the assay was 0.5%. Compounds and cells were incubated for 1 h at room temperature and then detection reagents were added to each well (cAMP-D2 in cell lysis buffer, followed by europium cryptate-labeled anti-cAMP antibody). Plates were then incubated at room temperature for 1 h prior to reading. Time-resolved fluorescence measurements were collected on PerkinElmer Envision™ or BMG Pherastar™ microplate readers. The compound N-(2-fluoro-4-(methylsulfonyl)phenyl)-6-(4-(3-isopropyl-1,2,4-oxadiazol-5-yl)piperidin-1-yl)-5-nitropyrimidin-4-amine was used as a positive control in each runset while assay buffer containing 0.5% DMSO was used as the negative control."}, "[2]": {"test_system": "liver microsomes", "assay": "In vitro metabolism of Compound 1 in liver microsomes from various species", "type": "in vitro ADME, mouse, rat, dog, monkey and human", "conditions": "Compound 1 incubated with 0.25 mg/mL microsomal protein, pH 7.4; relative to M2 and M3", "experimental": "(§1) Compound 1 was incubated with mouse, rat, dog, monkey and human liver microsomal protein (0.25 mg/mL final concentration) in 100 mM potassium phosphate buffer containing 3 mM MgCl2 and 1 mM EDTA (pH 7.4) for over a period of time in the presence or absence of (3-NADPH. The samples were then processed and the supernatant was analyzed by LC-MS/MS for the identification and quantification of the metabolites."}, "[3]": {"assay": "In vivo metabolism of Compound 1: metabolites in dog plasma samples (LC/MS/MS)", "conditions": "dog plasma after dosing Compound 1; under the analytical conditions used", "experimental": "(§2) Metabolites of Compound 1 were identified in plasma samples collected from different pharmacokinetic studies in various species.\n(§3) Four species, mouse, rat, dog and monkey were dosed with Compound 1, and plasma samples were collected at predetermined time points from each of the species according to specific study protocols. The samples were then processed and subjected to the LC/MS/MS analysis for the identification and quantification of the metabolites. Three metabolites, designated M1 (Compound 2), M2 (Compound 3), and M3 were identified in plasma samples from various species. The M1 metabolite was identified as a mono-N-demethylation of Compound 1, and the M2 metabolite was a di-N-demethylation product of Compound 1. The third metabolite M3 (i.e., 3-fluoro-4-(5-fluoro-6-(4-(3-(2-fluoropropan-2-yl)-1,2,4-oxadiazol-5-yl)piperidin-1-yl)pyrimidin-4-ylamino)benzoic acid, see below) was determined as a carboxylic acid of Compound 1."}, "[4]": {"test_system": "dog liver microsomes", "assay": "In vitro metabolism of Compound 1 in dog liver microsomes", "type": "in vitro ADME", "conditions": "Compound 1 incubated with 0.25 mg/mL microsomal protein, pH 7.4", "experimental": "as §1"}, "[5]": {"conditions": "combined administration with a DPP-IV inhibitor, cited from earlier work"}, "[6]": {"assay": "In vivo metabolism of Compound 1: metabolites in plasma samples from various species (LC/MS/MS)", "parameters": "species or system mouse, rat, dog and monkey", "conditions": "all species, after dosing Compound 1", "experimental": "as §2, §3"}, "[7]": {"conditions": "human studies; infusion; over 24 hours; cited from earlier work"}, "[8]": {"conditions": "1 h incubation at room temperature, read-out: EC50, HTRF cAMP assay"}},
  "note": "pEC50: −log10 of the molar value. Like-named read-outs stand apart in the source and are kept apart here.",
  "data": [
    {"molecule": "CNC(=O)c1ccc(Nc2ncnc(N3CCC(c4nc(C(C)(C)F)no4)CC3)c2F)c(F)c1", "note": "[Compound 2, 3-fluoro-4-(5-fluoro-6-(4-(3-(2-fluoropropan-2-yl)-1,2,4-oxadiazol-5-yl)piperidin-1-yl)pyrimidin-4-ylamino)-N-methylbenzamide]", "values": [
      {"measurement": "pEC50", "setting": "[1]; [8]", "value": 7.57},
      {"measurement": "Pharmacological activity of metabolites (HTRF assay)", "setting": "[1]", "value": "pharmacologically active"},
      {"measurement": "Rate of formation of metabolite in liver microsomal incubation", "setting": "[2]", "value": "highest"}
    ]},
    {"molecule": "CC(C)(F)c1noc(C2CCN(c3ncnc(Nc4ccc(C(N)=O)cc4F)c3F)CC2)n1", "note": "[Compound 3, 3-fluoro-4-(5-fluoro-6-(4-(3-(2-fluoropropan-2-yl)-1,2,4-oxadiazol-5-yl)piperidin-1-yl)pyrimidin-4-ylamino)benzamide]", "values": [
      {"measurement": "pEC50", "setting": "[1]; [8]", "value": 7.55},
      {"measurement": "Pharmacological activity of metabolites (HTRF assay)", "setting": "[1]", "value": "pharmacologically active"},
      {"measurement": "Metabolite observed in dog plasma samples", "setting": "[3]", "value": "not observed"},
      {"measurement": "Formation of metabolite in dog liver microsomes", "setting": "[4]", "value": "negligible"}
    ]},
    {"molecule": "CC(C)c1noc(C2CCN(c3ncnc(Nc4ccc(S(C)(=O)=O)cc4F)c3[N+](=O)[O-])CC2)n1", "note": "[Compound B111, (2-Fluoro-4-methanesulfonyl-phenyl)-{6-[4-(3-isopropyl-[1,2,4]oxadiazol-5-yl)-piperidin-1-yl]-5-nitro-pyrimidin-4-yl}-amine]", "values": [
      {"measurement": "Plasma GLP-1 levels", "setting": "[5]; greater than either agent alone", "value": "acutely increased plasma GLP-1 levels"},
      {"measurement": "Glucose tolerance", "setting": "[5]; significantly greater degree than either agent alone", "value": "improved glucose tolerance"}
    ]},
    {"molecule": "CC(C)(F)c1noc(C2CCN(c3ncnc(Nc4ccc(C(=O)O)cc4F)c3F)CC2)n1", "note": "[Compound M3, 3-fluoro-4-(5-fluoro-6-(4-(3-(2-fluoropropan-2-yl)-1,2,4-oxadiazol-5-yl)piperidin-1-yl)pyrimidin-4-ylamino)benzoic acid]", "values": [
      {"measurement": "pEC50", "setting": "[1]; read-out: EC50, HTRF assay", "value": 4.00},
      {"measurement": "Pharmacological activity of metabolites (HTRF assay)", "setting": "[1]", "value": "substantially little activity"},
      {"measurement": "Circulating metabolite status", "setting": "[6]", "value": "major circulating metabolite"}
    ]},
    {"molecule": "PYY3-36: generated from PYY1-36 by cleavage of the N-terminal Tyr and Pro residues by DPP-IV; Y2R agonist", "values": [
      {"measurement": "Reduction of food intake", "setting": "[7]", "value": 33, "unit": "%"}
    ]}
  ]
}
